# Source: paper PMC5325331, “A steroid like phytochemical Antcin M is an anti-aging reagent that eliminates hyperglycemia-accelerated premature senescence in dermal fibroblasts by direct activation of Nrf2 and SIRT-1” (Oncotarget, 2016)
# What was measured:
# Format in all cases: cell-based, human
# HO-1 and NQO-1 mRNA = assay: Q-PCR of anti-oxidant genes in HNDFs; settings: ANM 10 μM, 12 h
# Description: Total RNA was extracted from cultured HNDFs using Trizol Reagent (Thermo Fisher Scientific). Q-PCR analysis was performed using Applied Biosystems detection instruments and software. Forward and reverse primers (10 μM), and the working solution SYBR green, was used as a PCR master mix, under the following conditions: 96°C for 3 minutes followed by 40 cycles at 96°C for 1 minute, 50°C for 30 seconds and 72°C for 90 seconds. GAPDH was used as an internal standard to control for variability in amplification because of differences in starting mRNA concentrations. The copy number of each transcript was calculated as the relative copy number normalized by GAPDH copy number.
# HUVECs [1] = assay: Cell viability of HUVECs (MTT assay); settings: ANM 10 μM or RES 5 μM for 48 h
# Description: Human normal dermal fibroblasts ([…]) and human umbilical vein endothelial cells (HUVECs) were obtained from the Bioresource Collection and Research Center (BCRC), Hsinchu, Taiwan. […] Likewise, HUVECs were grown in M-199 medium supplemented with ECGS, heparin, 10% FBS and 100 U/mL penicillin and streptomycin at 37°C in a fully humidified atmosphere of 5% CO2. High-glucose treatment was performed by treating cells with 15 or 30 mM D-glucose (HG) for 24-72 h. […] Cell viability was assessed by MTT colorimetric assay. […] After treatment with HG (15 and 30 mM) in the presence or absence of samples for 24-72 h, culture media was withdrawn and incubated with MTT (1 mg/mL) in fresh medium for 2 h. The MTT formazan crystals were dissolved in 400 μL of DMSO and the samples were measured at 570 nm […] using an ELISA microplate reader (Bio-Tek Instruments, Winooski, VT). The percentage of cell viability (%) was calculated as (A570 of treated cells/A570 of untreated cells) × 100.
# HUVECs [2] = assay: SA-β-gal senescence assay in HG-treated HUVECs; settings: ANM 10 μM with HG (30 mM) for 48 h; HG alone 6.38-fold
# Description: (§1) Senescence-associated β-galactosidase (SA-β-gal) activity was determined in formaldehyde-fixed histochemical staining kit according to the manufacturer's instructions (Cell Signaling Technology, Danvers, […]). Briefly, cells were grown in 6-well plates at a density of 5 × 10^4 cells/well, and incubated with HG or test samples for 48 h (HUVECs) or 72 h (HNDFs). After incubation, cells were stained with SA-β-gal staining solution at pH 6.0 overnight and then the development of blue staining was observed and photographed under a bright-field microscope (Motic Electric Group, Xiamen, P.R. China).
# HNDFs [3] = assay: SA-β-gal senescence assay in HG-induced HNDFs
# Description: Human normal dermal fibroblasts (HNDFs, CCD966SK) and human umbilical vein endothelial cells (HUVECs) were obtained from the Bioresource Collection and Research Center (BCRC), Hsinchu, Taiwan. HNDFs were grown in MEM containing 10% FBS, 2 mM L-glutamine, 100 U/mL penicillin and streptomycin at 37°C in a fully humidified atmosphere of 5% CO2. Likewise, HUVECs were grown in M-199 medium supplemented with ECGS, heparin, 10% FBS and 100 U/mL penicillin and streptomycin at 37°C in a fully humidified atmosphere of 5% CO2. High-glucose treatment was performed by treating cells with 15 or 30 mM D-glucose (HG) for 24-72 h.
# as §1
# HNDFs [4] = assay: Flow cytometric detection of intracellular ROS (DCFH2-DA) in HNDFs
# Description: Intracellular ROS accumulation was determined using the dye DCFH2-DA following a procedure described earlier. Briefly, HNDFs (1 × 10^5 cells/well) were seeded in 6-well plates and incubated with HG in the presence or absence of test samples for 24 h. At the end of the incubation, the culture supernatant was removed and cells were washed twice with PBS. DCFH2-DA (10 μM) was mixed with 500 μL MEM and added to the culture plate. After incubation for 30 minutes, cells were collected by trypsin and the fluorescence shift was quantified using a flow cytometer (Beckman Coulter). Data were acquired and analyzed using CXP software (Beckman Coulter).
# HUVECs [5] = assay: Intracellular ROS by DCF fluorescence assay in HUVECs; settings: ANM 10 μM with HG (30 mM) for 48 h; HG alone 14.3-fold
# Description: Cell viability was dermined by MTT assay. Percentage of viable cells were normalized with control cells (NG). B. Cellular senescence was determined by SA-β-gal activity assay as descrided in Materials and Methods. C., D. Total cell lysate was extracted and senescence-associated marker proteins including p16INK4A, p21CIP1, total and acetylated p53 and FoxO1 were measured by western blot analysis. E. Protein expression levels of SIRT-1 and phos-SIRT-1 were monitored by immunoblotting. […] The intracellular ROS level was quantified by utilizing DCFH-DA assay. G. Western blot analysis was performed to determine the protein expression levels of HO-1 and NQO-1. […] Cell lysates were mixed with luciferase reagents and quantified using an illuminometer. Relative ARE promoter activity was calculated by dividing the relative luciferace unit (RLU) of treated cells by RLU of untraeated cells (NG). Results expressed as mean ± SEM of three indipendent expriments. Statistical significance at ^ФP < 0.05 compared to NG vs. HG and *P < 0.05 compared to HG vs. samples.
# [6] = tested on: Nrf2 transcriptional activity (ARE promoter); assay: ARE luciferase reporter assay in HNDFs; settings: 6 h
# Description: ARE promoter activity was measured using a dual-luciferase reporter assay system (Promega, Madison, WI). […] Cells were then transfected with ARE plasmid (Qiagen, Hilden, Germany) using Lipofectamine 2000 (Invitrogen) and incubated for 36 h. […] The cell lysate was prepared and incubated with luciferase agents and the relative luminescence intensity was quantified using a spectrophotometer (Hidex Oy, Turku, Finland).
# [7] = tested on: p16INK4A, p21CIP1 and SMP30; assay: Western blot of senescence-associated marker proteins in HG-induced HNDFs; settings: 10 μM with HG (30 mM) for 72 h, immunoblotting
# Description: Cells were lysed by either RIPA lysis buffer or nuclear and cytoplasmic extraction reagents (Thermo Fisher Scientific). Protein concentrations were determined by Bio-Rad protein assay reagent (Bio-Rad Laboratories, Hercules, CA). Equal amounts of protein samples (60 μg) were separated by 7-12% SDS-PAGE and the separated proteins were transferred onto polyvinylidene […] (PVDC) membrane overnight. The transferred protein membranes were blocked with 5% non-fat dried milk for 30 min, followed by incubation with specific primary antibodies overnight, and either horseradish peroxidase-conjugated goat anti-rabbit or anti-mouse antibodies for 2 h. The blots were detected using VL Chemi-Smart 3000 (Viogene Biotek, Sunnyvale, CA) with the enhanced chemiluminescence (ECL) western blotting reagent (Millipore, Billerica, MA).
smiles,measurement,setting,value
"C=C(CCC(C)C1CCC2C3=C(C(=O)C(O)C21C)C1(C)CCC(O)C(C)C1CC3)C(C)C(=O)O (stereo not drawn) [ANM, antcin M]",mRNA levels of HO-1 and NQO-1,HO-1 and NQO-1 mRNA,significantly increased
same,"cell viability of HUVECs, treatment alone",HUVECs [1],did not affect cell viability
same,SA-β-gal staining (endothelial senescence),HUVECs [2],1.36 fold
same,SA-β-gal positive cells,"HNDFs [3]; 10 μM with HG (30 mM) for 72 h, HG alone 9.59-fold (Figure 2B)",1.51 fold
same,SA-β-gal positive cells,"HNDFs [3]; ANM 10 μM with HG (30 mM) for 72 h, HG alone 5.72-fold (Figure 4B)",1.89 fold
same,HG-induced ROS generation,"HNDFs [4]; ANM 10 μM or NAC 100 μM with HG (30 mM) for 24 h, HG alone 426.2%",200.8%
same,"ROS generation, treatment alone","HNDFs [4]; ANM 10 μM or NAC 100 μM without HG, 24 h",did not significantly increase ROS generation
same,intracellular ROS levels,HUVECs [5],6.1 fold
same,ARE luciferase activity,"[6]; ANM 10 μM or NAC 100 μM alone, control 1-fold",5.8 fold
same,ARE luciferase activity,"[6]; co-treated with HG (30 mM), ANM 10 μM or NAC 100 μM, HG alone 2.5-fold",8.5 fold
same,HG-induced upregulation of p16INK4A and p21CIP1 proteins,[7],significantly downregulated
same,SMP30 protein expression,[7],rescued HG-induced SMP30 depletion
